Marks after values point to notes of the source that are not given here.
Experiments:
mungbean seedling growth = settings: cited from earlier work
[1] = tested on: 15-day-old chick embryo retina; settings: 1 mM, incubated for 30 minutes in BSS, pilot studies; cited from earlier work
[2] = tested on: 15-day-old chick embryo retina; settings: agonist alone, 30 minutes, pilot experiments
Description: This assay is adapted from procedures described in literature sources [Olney, J.W., Price, M.T., Fuller, T.A., Labruyere, J., Samson, L., Carpenter, M., Mahan, K., "The Anti-Excitotoxic Effects of Certain Anesthetics, Analgesics and Sedative-Hypnotics", Neuroscience Letters, 68, 29-34, (1986)]. By an approach similar to that earlier described [Reif-Lehrer, L., Bergenthal, J. and Hanninen, L., "Effects of Monosodium Glutamate on Chick Embryo Retina in Culture", Invest. Ophthalmol., 14, 114-124, (1975)], 15-day-old chick embryos were decapitated and their eyes removed and cut into quadrants after excising the cornea and removing the lens, vitreous and iris. The retinal quadrants were then gently separated from the pigment epithelium and incubated for 30 minutes at 37°C in a standard balanced salt solution (BSS) to which test compounds, either excitatory amino acid agonists or potential antagonists or both, were added in various concentrations. As described elsewhere [Olney, J.W., Price, M.T., Samson, L. and Labruyere, J., "The Role of Specific Ions in Glutamate Neurotoxicity". Neurosci. Lett.. […]

NMDA = experiment: Glutamate binding assay, NMDA-specific L-[³H]glutamate binding to synaptic plasma membranes; settings: 12.5 nM L-[³H]glutamate, SPM, 0-4°C, 10 minutes
Description: (§1) The purpose of this assay is to determine the binding affinity of a compound of Formula I for the three glutamic acid receptor sub-types. (NMDA, QUIS, Kainate). It is expected that a compound interacting with one of these sub-type receptors will mimic or antagonize the effect of the endogenous ligand and thereby have a memory enhancing effect or have a neuroprotective and/or anti-epileptic effects. This procedure was carried out as follows:
(§2) Synaptic plasma membranes (SPM) were prepared as previously described [Monahan, J.B. and Michel, J., "Identification and Characterization of an N-methyl-D-aspartate-specific L-[³H]glutamate Recognition Site in Synaptic Plasma Membranes, J. Neurochem., 48, 1699-1708 (1987)]. The SPM were stored at a concentration of 10-15 mg/ml in 0.32M sucrose, 0.5 mM EDTA, 1mM MgSO₄, 5 mM Tris/SO₄, pH 7.4, under liquid nitrogen. The identity and purity of the subcellular fractions were confirmed by both electron microscopy and marker enzymes. Protein concentrations were determined by using a modification of the method of Lowry [Ohnishi, S.T. and Barr, J.K., "A Simplified Method of Quantitating Proteins Using the Biuret and Phenol Reagents", Anal. Biochem., 86, 193-197 (1978)]. The SPM were treated identically for the [³H]AMPA (QUIS), [³H]kainate and NMDA-specific L-[³H]glumatate binding assays. The SPM were thawed at room temperature, diluted twenty-fold with 50mM Tris/-acetate, pH 7.4, incubated at 37°C for 30 minutes, and centrifuged at 100,000 g for 15 minutes. The dilution, incubation, and centrifugation was repeated a total of three times. The basic procedure for the receptor subclass binding assays was similar. This general method involved adding the radioligand (12.5 nM L-[³H]glutamate; 0.5 nM [³H]kainate or 10nM L-[³H]AMPA) to the appropriate concentration of the test compound and initiating the assay by the addition of ice cold SPM (0.2-0.45 mg). The binding assays were performed in 1.5 ml centrifuge tubes with the total volume adjusted to 1.0 ml. Additions of test compounds were made in 50 mM Tris/acetate, pH 7.4 and incubations were carried out at 0-4°C. The incubation time for the NMDA and the AMPA binding assays was 10 minutes and for the kainate binding assay 60 minutes. The AMPA binding assay contained 100 mM KSCN. […] The supernatant was aspirated and the pelleted membranes dissolved in Beckman Ready-Protein scintillation cocktail and the samples counted on a Beckman LS 5800 or 3801 liquid scintillation counter with automatic corrections for quenching and counting efficiency. […] Radioligand binding to the SPM was analyzed using Scatchard and Hill transformations and the Ki values of the compounds determined using logit-log transformations. […]

NMDA neurotoxicity = experiment: In vitro chick retina assay, protection against NMDA; type: cell-based; settings: for % protection vs NMDA: NMDA 200 µM; for Antagonist activity vs NMDA: concentration required to completely prevent toxicity of NMDA (200 µM), 30 minutes at 37°C
Description: (§3) This assay is adapted from procedures described in literature sources [Olney, J.W., Price, M.T., Fuller, T.A., Labruyere, J., Samson, L., Carpenter, M., Mahan, K., "The Anti-Excitotoxic Effects of Certain Anesthetics, Analgesics and Sedative-Hypnotics", Neuroscience Letters, 68, 29-34, (1986)]. By an approach similar to that earlier described [Reif-Lehrer, L., Bergenthal, J. and Hanninen, L., "Effects of Monosodium Glutamate on Chick Embryo Retina in Culture", Invest. Ophthalmol., 14, 114-124, (1975)], 15-day-old chick embryos were decapitated and their eyes removed and cut into quadrants after excising the cornea and removing the lens, vitreous and iris. The retinal quadrants were then gently separated from the pigment epithelium and incubated for 30 minutes at 37°C in a standard balanced salt solution (BSS) to which test compounds, either excitatory amino acid agonists or potential antagonists or both, were added in various concentrations. As described elsewhere [Olney, J.W., Price, M.T., Samson, L. and Labruyere, J., "The Role of Specific Ions in Glutamate Neurotoxicity". Neurosci. Lett.. […] After incubation for 30 minutes, the retinal quadrants were fixed by immersion in phosphate-buffered solution containing 1.5% glutaraldehyde and 1% paraformaldehyde, then additionally fixed in 1% osmium tetroxide and embedded in araldite, allowing sections to be cut for either light or electron microscopy [Olney, J.W., "Glutamate-Induced Retinal Degeneration in Neonatal Mice. Electron Microscopy of the Acutely Evolving Lesion", J. Neuropathol. Exp. Neurol., 28, 455-474, (1969)]. […] Neurosci. […] For purposes of the present study, NMDA and KA were the agonists employed and numerous potential antagonists were tested at various concentrations for their ability to prevent NMDA or KA neurotoxicity. […] Internal controls on each experiment consisted of at least 6 specimens being incubated with agonist alone (NMDA 200 µM or KA 25 µM). […]

Kainate = experiment: Glutamate binding assay, [³H]kainate binding to synaptic plasma membranes; settings: 0.5 nM [³H]kainate, SPM, 0-4°C, 60 minutes
Description: as §1, §2

KA neurotoxicity = experiment: In vitro chick retina assay, protection against KA; type: cell-based; settings: concentration required to completely prevent toxicity of KA (25 µM); 30 minutes at 37°C
Description: as §3

QA = experiment: In vitro chick retina assay, protection against QA; type: cell-based; settings: 30 minutes at 37°C; QA concentration not given
[3] = tested on: rat brain synaptic membranes (SPM); experiment: [³H]TCP modulation assay; type: binding
Description: The effect on [³H]TCP (1-[1-(2-thienyl)-cyclohexyl]piperidine) binding was measure in rat brain synaptic membranes (SPM) prepared as previously described (J.B. Monahan and J. Michel; J. Neurochem., 48, 1699-1708, (1987)). Prior to their use in the binding assay, frozen SPM were thawed, diluted twenty fold with 50 mM Tris/acetate, pH 7.4 containing 0.04% (v/v) Triton X-100, incubated for 30 min., at 37°C and centrifuged at 95,000 xspg for 15 min. The Triton X-100 treated SPM were washed with 5 mM Tris/HCl, pH 7.4 and centrifuged a total of six times. The compounds of the invention were incubated with SPM (0.2-0.4 mg protein) and 2 nM [³H]TCP in a total volume of 0.5 ml of 5 mM Tris/HCl buffer pH 7.4 at 25°C for 60 min. The samples were filtered through glass fiber filters (Schleicher & Schuell #32) which have been pretreated with 0.05% (v/v) polyethylenimine, washed with 2 ml of ice-cold 5 mM Tris/HCl buffer, and then counted on a Beckman LS 5800 liquid scintillation counter with automatic corrections for quenching and counting efficiency. Antagonist character was defined as the ability of the test compound to inhibit [³H]TCP binding in the presence of 1 µM L-glutamate, while agonist character is shown by stimulation of either basal [³H]TCP binding or the binding in the presence of 10 µM D-AP7, a specific competitive NMDA antagonist. Non specific binding was defined as the residual binding in the presence of 60 µM phencyclidine.

QUIS = experiment: Glutamate binding assay, [³H]AMPA (QUIS) binding to synaptic plasma membranes; settings: 10nM [³H]AMPA, 100 mM KSCN, SPM, 0-4°C, 10 minutes
Description: as §1, §2

Row | Structure (SMILES) | Ki (NMDA) | Antagonist activity vs NMDA (NMDA neurotoxicity) | Binding Ki KA (Kainate) | Antagonist activity vs KA (KA neurotoxicity) | Antagonist activity vs QA (QA) | Ki (QUIS) | other results
1 | NC(C(=O)O)[C@@H]1C[C@@H]1C(=O)O (relative stereo) [cis-α-(carboxycyclopropyl)glycine] |  |  |  |  |  |  | inhibition of mungbean seedling growth (mungbean seedling growth): potent inhibitor
2 | N[C@@H](CCC(=O)O)C(=O)O [Glu, Glutamate] |  |  |  |  |  |  | retinal lesion [1]: a fully developed lesion occurs
3 | C=C(C)[C@H]1CN[C@H](C(=O)O)[C@H]1CC(=O)O [KA, Kainate] |  |  |  |  |  |  | lowest concentrations required to consistently obtain fully developed retinal lesions [2]: 25 µM
4 | CN[C@H](CC(=O)O)C(=O)O [NMDA, N-methyl-D-aspartate] |  |  |  |  |  |  | lowest concentrations required to consistently obtain fully developed retinal lesions [2]: 200 µM
5 | N[C@H](CC1CC1C(=O)O)C(=O)O (stereo partly drawn) [cis-D-2-amino-4,5-methyleneadipic acid, Cis-D-2-amino-4,5-methyleneadipic acid] | 1.9 µM | > 75 µM | 13.0 µM | >500 µM | >500 µM | > 300 µM | % protection vs NMDA (NMDA neurotoxicity; compound at 10 µM): 10(0%)*; % protection vs NMDA (NMDA neurotoxicity; compound at 25 µM): 25(33%)*; % protection vs NMDA (NMDA neurotoxicity; compound at 50 µM): 50(66%)*; % protection vs NMDA (NMDA neurotoxicity; compound at >75 µM): 100%; maximal stimulation of [³H]TCP binding ([3]; compared with the full agonist glutamate): substantially less than that shown for the full agonist glutamate; [³H]TCP Bound ([3]; compound 100 µM, in presence of D-AP7 (10µM), control without compound 5016): 11453 DPM; [³H]TCP Bound ([3]; compound 100 µM, in presence of L-Glutamate (1µM), control without compound 15466): 12265 DPM; [³H]TCP Bound ([3]; compound 200 µM, in presence of D-AP7 (10µM), control without compound 5016): 11161 DPM; [³H]TCP Bound ([3]; compound 200 µM, in presence of L-Glutamate (1µM), control without compound 15466): 11880 DPM; [³H]TCP Bound ([3]; compound 400 µM, in presence of D-AP7 (10µM), control without compound 5016): 9345 DPM; [³H]TCP Bound ([3]; compound 400 µM, in presence of L-Glutamate (1µM), control without compound 15466): 9622 DPM; effect on quantity of [³H]TCP bound ([3]; in the presence of D-APH): agonist effect; effect on quantity of [³H]TCP specifically bound ([3]; in the presence of L-glutamic acid): antagonist effect
6 | N[C@@H](CC1CC1C(=O)O)C(=O)O (stereo partly drawn) [cis-L-2-amino-4,5-methyleneadipic acid, Cis-L-2-amino-4,5-methyleneadipic acid] | 14.2 µM | >500 µM | 23.0 µM | >500 µM | >500 µM | > 300 µM | 
7 | N[C@H](CC1CC1C(=O)O)C(=O)O (stereo partly drawn) [trans-D-2-amino-4,5-methyleneadipic acid, Trans-D-2-amino-4,5-methyleneadipic acid] | 2.2 µM | > 125 µM | 25.0 µM | >500 µM | >500 µM | > 300 µM | % protection vs NMDA (NMDA neurotoxicity; compound at 50 µM): 50(0%)*; % protection vs NMDA (NMDA neurotoxicity; compound at 75 µM): 75(66%)*; % protection vs NMDA (NMDA neurotoxicity; compound at >125 µM): 100%
8 | N[C@@H](CC1CC1C(=O)O)C(=O)O (stereo partly drawn) [trans-L-2-amino-4,5-methyleneadipic acid, Trans-L-2-amino-4,5-methyleneadipic acid] | 2.5 µM | >500 µM | 37.0 µM | >500 µM | >500 µM | > 300 µM | 

Reference: patent publication EP0342558A2, “2-amino-4,5-methyleneadipic acid compounds for treatment of CNS disorders” (priority 1988, dated 1989)
